# According to publication PMC4757823, “μ Opioid receptor: novel antagonists and structural modeling” (Scientific Reports, 2016):
# Legend:
# human MOR [1] = molecular target: T1, human MOR (Homo sapiens, UniProt P35372); assay: Radioligand MOR binding assay ([3H]DAMGO competition, CHO-hMOR membranes); conditions: for inhibition at 10 µM: read-out: inhibition of [3H]DAMGO binding to the MOR
# T1 construct: expressed in transfected cells; host or cells: CHO (Chinese hamster ovary) cells stably expressing human MOR; gift from Dr. Lawrence Toll, SRI International
# human MOR [2] = molecular target: T1, human MOR; assay: [35S]GTPγS binding assay in CHO-hMOR cell membranes; type: biochemical; conditions: for stimulation of [35S]GTPγS binding: CHO-hMOR membranes, agonist mode
# Protocol: Determination of [^35S]GTPγS binding to CHO-hMOR cell membranes were performed as described previously. Cell membranes (5–10 μg protein), prepared as described for the radioligand MOR binding assay, were incubated in the absence or in the presence of test compound in the assay buffer (20 mM HEPES, 100 mM NaCl, 10 mM MgCl2, pH 7.4) containing [^35S]GTPγS (0.05 nM) and GDP (10 nM) in a total volume of 1.0 mL for 60 min at 25 °C. Nonspecific binding was determined using 10 μM GTPγS, and the basal binding was determined in the absence of test compound. Samples were filtered over glass fiber filters and counted as described for the radioligand binding assays. […] The antagonist equilibrium dissociation constant Ke for 4 was calculated using the equation Ke = [a]/(DR − 1), where “a” is the concentration of antagonist. All experiments were performed in duplicate and repeated at least three times.
# human MOR [3] = molecular target: T1, human MOR; assay: cAMP accumulation assay (GloSensor) in CHO-hMOR-p22F cells; type: cell-based; conditions: for inhibition of the forskolin-stimulated cAMP production: CHO-hMOR-p22F cells, agonist mode
# Protocol: Inhibition of the forskolin-stimulated intracellular cAMP accumulation in CHO cells co-expressing the hMOR and the cAMP biosensor GloSensor-22F (CHO-hMOR-p22F cells) was performed using the Glo-Sensor^TM cAMP assay (Promega), according to the manufacturer’s instructions. Cells were seeded in growth medium into 384-well plates at a density of 5,000 cells in 30 μL per well and incubated overnight. On the day of assay, culture media was removed, and cells were pre-equilibrated for 90 min with 4% v/v of the GloSensor cAMP reagent in reaction medium (20 mM HEPES, 1 × HBSS, pH 7.4) at 37 °C and 5% CO2. […] Forskolin (10 μM) was added to each well, and luminescence was measured after 20 min. All experiments were performed in triplicate and repeated at least three times.
# [4] = tested on: morphine-induced antinociception in mice; assay: Acetic acid-induced writhing test, antagonism of morphine-induced antinociception; type: in vivo, mouse; conditions: s.c.
# [5] = tested on: morphine-induced antinociception in mice; assay: Tail-flick test, antagonism of morphine-induced antinociception; type: in vivo, mouse
# μ1 receptors = molecular target: μ1 receptors; parameters: method as in PMID 8069669; conditions: lowering radioligand binding; cited from earlier work
# μ2 receptors = molecular target: μ2 receptors; parameters: method as in PMID 8069669; conditions: lowering radioligand binding; cited from earlier work
# mouse tail-flick test = tested on: mouse tail-flick test; parameters: method as in PMID 8069669; conditions: cited from earlier work
# MOR = conditions: concentration of 100 μM; cited from earlier work
# [6] = tested on: μ3 opioid receptor subtype; parameters: method as in PMID 15580165; conditions: human monocytes; cited from earlier work
# T1 sequence (P35372 whole entry): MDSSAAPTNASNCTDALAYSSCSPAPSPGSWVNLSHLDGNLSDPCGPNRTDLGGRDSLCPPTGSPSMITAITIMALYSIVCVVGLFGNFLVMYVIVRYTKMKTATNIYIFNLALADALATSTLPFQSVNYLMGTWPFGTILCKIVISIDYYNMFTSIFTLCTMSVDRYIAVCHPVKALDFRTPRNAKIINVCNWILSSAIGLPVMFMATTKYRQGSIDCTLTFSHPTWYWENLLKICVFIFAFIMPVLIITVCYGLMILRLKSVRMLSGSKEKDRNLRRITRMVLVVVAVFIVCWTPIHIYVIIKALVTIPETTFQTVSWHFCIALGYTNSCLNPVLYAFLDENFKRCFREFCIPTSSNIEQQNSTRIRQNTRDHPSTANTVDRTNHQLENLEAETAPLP
SMILES,Ki (human MOR [1]) [µM],inhibition at 10 µM (human MOR [1]) [%],stimulation of [35S]GTPγS binding (human MOR [2]),inhibition of the forskolin-stimulated cAMP production (human MOR [3]),further results
Cc1c(NC(=O)c2ccc(Cl)cc2)cc(-c2ccccc2)n1CCCN1CCOCC1 [Compound 3],10.7,≥ 50,none of the three ligands produced any increase,not effective,
COc1cc2c(cc1OC)C(C)N(Cc1cc(C)c(O)c(C)c1)CC2 (stereo not drawn) [Compound 4],1.11,≥ 50,none of the three ligands produced any increase,not effective,"Kb (human MOR [2]; read-out: antagonist equilibrium constant (Ke)): 1.02 ± 0.25 µM; rightward shift in the concentration-response for DAMGO (human MOR [3]; DAMGO inhibition of forskolin-stimulated cAMP accumulation): 3 fold; Kb (human MOR [3]; read-out: Ke): 8.03 ± 0.38 µM; effect on pain behavior when administered alone (chemical sensitivity) ([4]; alone, vs. vehicle): did not affect pain behavior; reversal of morphine analgesia in the writhing test ([4]; given 30 min prior to s.c. morphine): significant and dose-dependent reversal; blockade of morphine's analgesic effect against thermal-induced nociception ([5]; 20 mg/kg s.c. pretreatment, 30 min prior to s.c. morphine): complete blockade; effect on pain behavior when administered alone (thermal sensitivity) ([5]; s.c., alone, vs. vehicle): did not affect pain behavior"
COc1ccc(S(=O)(=O)N2CCCN(c3c(Cl)cncc3Cl)CC2)cc1OC [Compound 5],7.01,≥ 50,none of the three ligands produced any increase,not effective,
COc1ccc(CC2c3cc(OC)c(OC)cc3CCN2C)cc1OC (stereo not drawn) [Laudanosine],,,,,Ki (μ1 receptors): 2.7 µM; Ki (μ2 receptors): 13 µM; antinociceptive effects (mouse tail-flick test): exert antinociceptive effects
COc1ccc(C[C@H]2c3cc(O)c(OC)cc3CCN2C)cc1O [reticuline],,,,,% of morphine effects (MOR): ca. 16%; binding to the μ3 opioid receptor subtype [6]: no binding
